The experiment has as its system T1, pPPO (purified kudzu polyphenol oxidase).
T1 construct: gene PPO; single prominent SDS-PAGE band approx. 21 kDa
In words: UV-visible spectrophotometry at […] nm, Lineweaver-Burk. The note with it: catechol oxidation; activity assay in McIlvaine buffer pH 5.0, 25 °C. The format is biochemical, Pueraria montana var. lobata.

Take `Oc1ccccc1O` [catechol]: the Km came out at 23.5 mM.

The Km is the concentration of substrate that gives half-maximal velocity.
